Experimental data published in patent US20210300981A1, “COMPOSITIONS AND METHODS FOR COMBATING MULTIDRUG-RESISTANT BACTERIA” (University of Virginia Patent Foundation, priority 2018, published 2021).
Where a SMILES comes first, the peptide text is derived from it. Where no end group is shown, it is not given here. [ ]: non-standard residue; d: D form. ξ: configuration not given here. ξαMeGly(pent-4-enyl) = C=CCCCC(C)(N)C(=O)O

Assays:
[1] = system: CRE K. pneumoniae; assay type: cell-based, Klebsiella pneumoniae; details: for function of alanine scan variants: 2 hours (FIGS. 21, 22); for bactericidal activity versus negative control Peptide P5: 2.5×10^5 cfu/ml
[2] = system: MDR S. Typhi; assay type: cell-based, Salmonella enterica serovar Typhi; details: 50 μM, RPMI/HEPES, 2.5×10^5 cfu/ml
[3] = system: MDR S. flexneri
[4] = system: CRE K. pneumoniae
[5] = assay media, higher concentrations
[6] = system: MDR A. baumannii; details: 2 h, 1.4 μM
[7] = system: MDR Enterobacter cloacae; details: 2 h, 16.8 μM
[8] = system: N. gonorrhoeae; details: 2 h, 22.4 μM
[9] = system: MRSA; details: 2 h, 11.2 μM
[10] = system: MDR P. aeruginosa; details: 2 h, 5.6 μM
[11] = system: B. anthracis; details: 2 h, 22.4 μM
[12] = system: VRE; details: 2 h, 11.2 μM
[13] = system: MDR S. Typhi; details: 2 h, 2.8 μM
[14] = system: B. anthracis Sterne strain 7702 spores; assay type: cell-based, Bacillus anthracis; details: 50 μM, RPMI/HEPES+2% FBS, 3 hours post-treatment, 1.0×10^7 cfu/ml spores
[15] = system: CD45+/CD3+ T lymphocytes; assay: Host-targeted bioregulatory effects: in vivo recruitment/infiltration of T lymphocytes; design: species or system C57BL/6 mice; details: as stated in the sequence description; FIG. 12
[16] = system: trypsin protease; assay: Resistance to proteolytic degradation (trypsin pretreatment, read out by killing of CRE K. pneumoniae); details: trypsin 200:1 molar ratio, 2 hours, 50 mM Tris-HCl + 20 mM CaCl2
[17] = system: K. pneumoniae ATCC 43816; assay: Full-thickness wound infection model; assay type: in vivo, C57BL/6 mice
[18] = Truncation of Peptide P9, retention of activity; details: first 6 amino acids removed
Excerpt: In some embodiments, alanine scans are available for […] (SEQ ID NO: 11). The alanine scan was used to modify the malleable position 8 and to make a conservative substitution at alanine residue 12 with an alkenyl derivative of alanine, namely, 2-(4-pentenyl)alanine, and then the alkene groups at positions 8 and 12 were coupled/stapled. Thus, a modified peptide in accordance with the presently disclosed subject matter includes a coupled peptide or a stapled peptide. […] Further, the first 6 amino acids present in […] (SEQ ID NO: 11) can be removed one by one while still retaining activity; removing all 6 gives KNLLKAVSKERSKRSP (SEQ ID NO: 12). Further truncations are also provided, including from the other end (such as the two end residues based on the alanine scan).

Question: Which “function of alanine scan variants” value ([1]; 50 μM, RPMI/HEPES) does the source give for “ATVRCTCI (Artificially synthesized antibacterial peptide or conjugate) [SEQ ID NO: 25, alanine scan variant of Peptide L8, position 1]” here?
Answer: still functional

Question: For “VPLSRTVRTVRCTCISIGGGPESKAIKNLLKAVSKERSKRSP [Peptide P55]”, which “bactericidal activity versus negative control Peptide P5” value [2] is on record?
Answer: statistically significant differences

Question: And the “bactericidal activity versus negative control Peptide P5” value ([1]; 50 μM, RPMI/HEPES)?
Answer: statistically significant differences

Question: For “CSVPTITCRVRLIS (Artificially synthesized antibacterial peptide or conjugate) [Peptide P1scram]”, which “survival of bacteria following exposure (killing)” value ([3]; 2.8 μM peptide, FIG. 6) is on record?
Answer: did not kill bacteria

Question: What about the “survival of bacteria following exposure (killing)” value ([4]; 2.8 μM peptide, FIG. 6) of the same compound?
Answer: did not kill bacteria

Question: For “PESKAIK(pA)LLK(pA)VSKERSKRSP (PESKAIK[ξαMeGly(pent-4-enyl)]LLK[ξαMeGly(pent-4-enyl)]VSKERSKRSP) [alkene-modified peptide, Peptide P9 variant with 2-(4-pentenyl)alanine at amino acids 8 and 12]”, which “activity of modified Peptide P9 variants relative to Peptide P9” value ([1]; 50 μM, RPMI/HEPES, 2 hours (FIG. 20)) is on record?
Answer: increased activity

Question: Which solubility [5] does the source give for CC[C@H](C)[C@H](NC(=O)[C@H](CO)NC(=O)[C@@H](NC(=O)[C@H](CS)NC(=O)[C@@H](NC(=O)[C@H](CS)NC(=O)[C@H](CCCNC(=N)N)NC(=O)[C@@H](NC(=O)[C@@H](NC(=O)[C@H](CCCNC(=N)N)NC(=O)[C@H](CO)NC(=O)[C@H](CC(C)C)NC(=O)[C@@H]1CCCN1C(=O)[C@@H](N)C(C)C)[C@@H](C)O)C(C)C)[C@@H](C)O)[C@@H](C)CC)C(=O)O [Peptide P1, VPLSRTVRCTCISI] (H-VPLSRTVRCTCISI-OH; N-terminus and C-terminus assumed) here?
Answer: experienced solubility issues at higher concentrations

Question: And the killing of bacteria [6]?
Answer: 99.0-99.9%

Question: What about the killing of bacteria ([3]; MDR, 2 h, 2.8 μM) of the same compound?
Answer: 99.0-99.9%

Question: What about the killing of bacteria [7] of the same compound?
Answer: 99.0-99.9%

Question: And the killing of bacteria [8]?
Answer: 99.0-99.9%

Question: What about the killing of bacteria [9] of the same compound?
Answer: 99.0-99.9%

Question: What about the killing of bacteria [10] of the same compound?
Answer: 99.0-99.9%

Question: And the killing of bacteria ([4]; CRE, 2 h, 5.6 μM)?
Answer: 99.0-99.9%

Question: And the killing of bacteria [11]?
Answer: 99.0-99.9%

Question: What about the killing of bacteria [12] of the same compound?
Answer: 99.0-99.9%

Question: And the killing of bacteria [13]?
Answer: 99.0-99.9%

Question: For “PESKAIKNLLKAVSKERSKRSPGGGVPLSRTVRCTCISI (Artificially synthesized antibacterial peptide or conjugate) [Peptide P59, Peptide P9 conjugated to Peptide P1 via a tri-glycine linker]”, which “spore germination (numbers of bacilli)” value [14] is on record?
Answer: reduced spore germination

Question: With “LSRTVRCTCISI (Artificially synthesized antibacterial peptide or conjugate) [Peptide ΔVP, truncated Peptide P1 variant lacking the first two amino acids]” as the compound, how does the immunomodulatory activity [15] read?
Answer: reduced or absent immunomodulatory activity

Question: And the “bactericidal activity versus negative control Peptide P5” value [2]?
Answer: statistically significant differences

Question: And the “bactericidal activity versus negative control Peptide P5” value ([1]; 50 μM, RPMI/HEPES)?
Answer: statistically significant differences

Question: Which “function of alanine scan variants” value ([1]; 50 μM, RPMI/HEPES) does the source give for “RAVRCTCI (Artificially synthesized antibacterial peptide or conjugate) [SEQ ID NO: 26, alanine scan variant of Peptide L8, position 2]” here?
Answer: still functional

Question: With RTVRCTCI [Peptide L8] as the compound, how does the “bactericidal activity versus negative control Peptide P5” value ([1]; 50 μM, RPMI/HEPES) read?
Answer: killed CRE K. pneumoniae statistically significantly more effectively than Peptide P5

Question: With RTVRCTCI [Peptide D8] as the compound, how does the “resistance to proteolytic degradation” value [16] read?
Answer: resistant to proteolytic degradation

Question: And the “bactericidal activity versus negative control Peptide P5” value [2]?
Answer: statistically significant differences

Question: And the “antimicrobial activity after incubation with trypsin” value ([1]; 50 μM peptide pretreated with trypsin (200:1 molar ratio) for 2 hours)?
Answer: retaining antimicrobial activity

Question: And the “bactericidal activity versus negative control Peptide P5” value ([1]; 50 μM, RPMI/HEPES)?
Answer: statistically significant differences

Question: What about the “survival (Kaplan-Meier) of infected mice” value ([17]; 10 μl of 1.2% peptide in saline topically, 4 hours post-infection then twice per day for 4 days, versus saline) of the same compound?
Answer: statistically significant increase in survival

Question: What about the “bacterial burden of wound swabs on LB agar” value ([17]; same treatment, day 14 post-infection) of the same compound?
Answer: No bacterial growth was observed

Question: What about the “wound status over the course of infection” value ([17]; same treatment, through day 21) of the same compound?
Answer: bacterial infection was resolved and healing occurred

Question: And the “spore germination (numbers of bacilli)” value [14]?
Answer: reduced spore germination

Question: With “L8-L8-L8: three copies of Peptide L8 concatemerized in head-to-tail configuration (RTVRCTCIRTVRCTCIRTVRCTCI; Artificially synthesized antibacterial peptide or conjugate) [Peptide L8-L8-L8]” as the compound, how does the “bactericidal activity versus negative control Peptide P5” value ([1]; 50 μM, RPMI/HEPES) read?
Answer: killed CRE K. pneumoniae statistically significantly more effectively than Peptide P5

Question: For PESKAIKNLLKAVSKERSKRSP [Peptide P9], which killing of bacteria [8] is on record?
Answer: 99.0-99.9%

Question: What about the “activity in hypotonic buffer” value ([1]; 10 mM KPB/1% TSB, 2 hours at 37° C., FIG. 10) of the same compound?
Answer: had activity

Question: And the “activity in RPMI (normosaline)” value ([1]; RPMI/HEPES, 2 hours at 37° C., FIG. 10)?
Answer: lost activity

Question: With “KNLLKAVSKERSKRSP (Artificially synthesized antibacterial peptide or conjugate) [SEQ ID NO: 12, 16 amino acid core, truncated version of Peptide P9]” as the compound, how does the “retention of the activities of Peptide P9 after truncation” value [18] read?
Answer: retains the activities of Peptide P9
